In ChEMBL document CHEMBL3885861, “Open TG-GATES”:

Species on record: Rattus norvegicus
Assay: Open TG-GATES - Regimen: Single
Format: toxicity, organism-based, Sprague-Dawley
Parameters: regimen Single, gender Male, age 6 weeks
Conditions: in vivo, po, 50 mg/kg, route gavage, dose level Low; for APTT / Bas / Eos / Fbg / Hb / Ht / Lym / MCH / MCHC / MCV / Mono / Neu / PT / Plat / RBC / Ret / WBC: tissue Blood; for KIDNEY_L / KIDNEY_R / KIDNEY_TOTAL: tissue Kidney; for LIVER: tissue Liver; for A/G / ALP / ALT / AST / BUN / CRE / Ca / Cl / DBIL / GLC / IP / K / LDH / Na / PL / RALB / TBIL / TC / TG / TP / gamma-GTP: tissue Plasma

Question: For `CC(=O)Oc1cc(C(C)C)c(OCCN(C)C)cc1C` [MOXISYLYTE], which TERMINAL_BW (3 h) is on record?
Answer: 210.1 g

Question: And the APTT (3 h)?
Answer: 21.8 s

Question: And the Bas (3 h)?
Answer: 0%

Question: What about the Eos (3 h) of the same molecule?
Answer: 1.2%

Question: What about the Fbg (3 h) of the same molecule?
Answer: 298.6 mg/dL

Question: What about the Hb (3 h) of the same molecule?
Answer: 13.1 g/dL

Question: What about the Ht (3 h) of the same molecule?
Answer: 38.6%

Question: What about the Lym (3 h) of the same molecule?
Answer: 80%

Question: And the MCH (3 h)?
Answer: 21 pg

Question: What about the MCHC (3 h) of the same molecule?
Answer: 34%

Question: And the MCV (3 h)?
Answer: 61.9 fL

Question: What about the Mono (3 h) of the same molecule?
Answer: 2.4%

Question: What about the Neu (3 h) of the same molecule?
Answer: 15.8%

Question: And the PT (3 h)?
Answer: 16.3 s

Question: And the Plat (3 h)?
Answer: 122 x10_4/uL

Question: And the RBC (3 h)?
Answer: 624.4 x10_4/ul

Question: What about the Ret (3 h) of the same molecule?
Answer: 8.5%

Question: What about the WBC (3 h) of the same molecule?
Answer: 93.6 x10_2/uL

Question: What about the KIDNEY_L (3 h) of the same molecule?
Answer: 0.9 g

Question: What about the KIDNEY_R (3 h) of the same molecule?
Answer: 0.9 g

Question: And the KIDNEY_TOTAL (3 h)?
Answer: 1.9 g

Question: What about the LIVER (3 h) of the same molecule?
Answer: 9.4 g

Question: And the A/G (3 h)?
Answer: 1.2

Question: What about the ALP (3 h) of the same molecule?
Answer: 1650.4 IU/L

Question: What about the ALT (3 h) of the same molecule?
Answer: 42.8 IU/L

Question: And the AST (3 h)?
Answer: 80.2 IU/L

Question: And the BUN (3 h)?
Answer: 13.8 mg/dL

Question: And the CRE (3 h)?
Answer: 0.1 mg/dL

Question: What about the Ca (3 h) of the same molecule?
Answer: 10.8 mg/dL

Question: What about the Cl (3 h) of the same molecule?
Answer: 107.6 meq/L

Question: What about the DBIL (3 h) of the same molecule?
Answer: 0.002 mg/dL

Question: And the GLC (3 h)?
Answer: 180.2 mg/dL

Question: And the IP (3 h)?
Answer: 8.6 mg/dL

Question: What about the K (3 h) of the same molecule?
Answer: 4.5 meq/L

Question: What about the LDH (3 h) of the same molecule?
Answer: 254.2 IU/L

Question: What about the Na (3 h) of the same molecule?
Answer: 142.4 meq/L

Question: What about the PL (3 h) of the same molecule?
Answer: 134.8 mg/dL

Question: And the RALB (3 h)?
Answer: 3 g/dL

Question: And the TBIL (3 h)?
Answer: 0.018 mg/dL

Question: And the TC (3 h)?
Answer: 72.6 mg/dL

Question: What about the TG (3 h) of the same molecule?
Answer: 70.2 mg/dL

Question: What about the TP (3 h) of the same molecule?
Answer: 5.4 g/dL

Question: What about the gamma-GTP (3 h) of the same molecule?
Answer: 1 IU/L

Question: What about the TERMINAL_BW (6 h) of the same molecule?
Answer: 210.4 g

Question: And the APTT (6 h)?
Answer: 22.1 s

Question: And the Bas (6 h)?
Answer: 0%

Question: And the Eos (6 h)?
Answer: 0.8%

Question: And the Fbg (6 h)?
Answer: 309.8 mg/dL

Question: And the Hb (6 h)?
Answer: 13 g/dL

Question: What about the Ht (6 h) of the same molecule?
Answer: 37.8%

Question: What about the Lym (6 h) of the same molecule?
Answer: 77%

Question: What about the MCH (6 h) of the same molecule?
Answer: 21.3 pg

Question: And the MCHC (6 h)?
Answer: 34.5%

Question: What about the MCV (6 h) of the same molecule?
Answer: 61.7 fL

Question: What about the Mono (6 h) of the same molecule?
Answer: 2.4%

Question: And the Neu (6 h)?
Answer: 18.8%

Question: And the PT (6 h)?
Answer: 15.9 s

Question: And the Plat (6 h)?
Answer: 116 x10_4/uL

Question: And the RBC (6 h)?
Answer: 612.6 x10_4/ul

Question: And the Ret (6 h)?
Answer: 8.4%

Question: What about the WBC (6 h) of the same molecule?
Answer: 70 x10_2/uL

Question: What about the KIDNEY_L (6 h) of the same molecule?
Answer: 0.9 g

Question: What about the KIDNEY_R (6 h) of the same molecule?
Answer: 0.9 g

Question: What about the KIDNEY_TOTAL (6 h) of the same molecule?
Answer: 1.9 g

Question: What about the LIVER (6 h) of the same molecule?
Answer: 9 g

Question: What about the A/G (6 h) of the same molecule?
Answer: 1.3

Question: What about the ALP (6 h) of the same molecule?
Answer: 1379.6 IU/L

Question: What about the ALT (6 h) of the same molecule?
Answer: 35.8 IU/L

Question: What about the AST (6 h) of the same molecule?
Answer: 70.6 IU/L

Question: What about the BUN (6 h) of the same molecule?
Answer: 11 mg/dL

Question: What about the CRE (6 h) of the same molecule?
Answer: 0.1 mg/dL

Question: What about the Ca (6 h) of the same molecule?
Answer: 10.6 mg/dL

Question: What about the Cl (6 h) of the same molecule?
Answer: 107.4 meq/L

Question: What about the DBIL (6 h) of the same molecule?
Answer: 0.004 mg/dL

Question: And the GLC (6 h)?
Answer: 181.4 mg/dL

Question: What about the IP (6 h) of the same molecule?
Answer: 9.2 mg/dL

Question: And the K (6 h)?
Answer: 4.4 meq/L

Question: And the LDH (6 h)?
Answer: 189 IU/L

Question: And the Na (6 h)?
Answer: 141.4 meq/L

Question: What about the PL (6 h) of the same molecule?
Answer: 146.8 mg/dL

Question: What about the RALB (6 h) of the same molecule?
Answer: 3 g/dL

Question: What about the TBIL (6 h) of the same molecule?
Answer: 0.028 mg/dL

Question: What about the TC (6 h) of the same molecule?
Answer: 84.2 mg/dL

Question: And the TG (6 h)?
Answer: 74 mg/dL

Question: And the TP (6 h)?
Answer: 5.3 g/dL

Question: What about the gamma-GTP (6 h) of the same molecule?
Answer: 1 IU/L

Question: What about the TERMINAL_BW (9 h) of the same molecule?
Answer: 208.4 g

Question: What about the APTT (9 h) of the same molecule?
Answer: 20.8 s

Question: And the Bas (9 h)?
Answer: 0%

Question: What about the Eos (9 h) of the same molecule?
Answer: 0.4%

Question: And the Fbg (9 h)?
Answer: 309.8 mg/dL

Question: What about the Hb (9 h) of the same molecule?
Answer: 13.3 g/dL

Question: What about the Ht (9 h) of the same molecule?
Answer: 38.7%

Question: And the Lym (9 h)?
Answer: 83.4%

Question: And the MCH (9 h)?
Answer: 21.2 pg

Question: What about the MCHC (9 h) of the same molecule?
Answer: 34.4%

Question: What about the MCV (9 h) of the same molecule?
Answer: 61.8 fL

Question: And the Mono (9 h)?
Answer: 1.4%

Question: What about the Neu (9 h) of the same molecule?
Answer: 14.2%

Question: And the PT (9 h)?
Answer: 15.8 s

Question: What about the Plat (9 h) of the same molecule?
Answer: 122.4 x10_4/uL

Question: And the RBC (9 h)?
Answer: 627 x10_4/ul

Question: And the Ret (9 h)?
Answer: 8.1%

Question: What about the WBC (9 h) of the same molecule?
Answer: 81 x10_2/uL

Question: And the KIDNEY_L (9 h)?
Answer: 0.9 g

Question: What about the KIDNEY_R (9 h) of the same molecule?
Answer: 0.9 g

Question: And the KIDNEY_TOTAL (9 h)?
Answer: 1.8 g

Question: What about the LIVER (9 h) of the same molecule?
Answer: 8.6 g

Question: What about the A/G (9 h) of the same molecule?
Answer: 1.3

Question: And the ALP (9 h)?
Answer: 1432 IU/L

Question: What about the ALT (9 h) of the same molecule?
Answer: 40.6 IU/L

Question: And the AST (9 h)?
Answer: 71.2 IU/L

Question: What about the BUN (9 h) of the same molecule?
Answer: 12 mg/dL

Question: And the CRE (9 h)?
Answer: 0.1 mg/dL

Question: What about the Ca (9 h) of the same molecule?
Answer: 10.6 mg/dL

Question: And the Cl (9 h)?
Answer: 108.2 meq/L

Question: And the DBIL (9 h)?
Answer: 0.012 mg/dL

Question: What about the GLC (9 h) of the same molecule?
Answer: 182.6 mg/dL

Question: What about the IP (9 h) of the same molecule?
Answer: 9.4 mg/dL

Question: And the K (9 h)?
Answer: 4.3 meq/L

Question: And the LDH (9 h)?
Answer: 242.6 IU/L

Question: What about the Na (9 h) of the same molecule?
Answer: 143 meq/L

Question: And the PL (9 h)?
Answer: 144.8 mg/dL

Question: And the RALB (9 h)?
Answer: 3.1 g/dL

Question: What about the TBIL (9 h) of the same molecule?
Answer: 0.018 mg/dL

Question: What about the TC (9 h) of the same molecule?
Answer: 82.6 mg/dL

Question: And the TG (9 h)?
Answer: 84.2 mg/dL

Question: What about the TP (9 h) of the same molecule?
Answer: 5.6 g/dL

Question: And the gamma-GTP (9 h)?
Answer: 1.2 IU/L

Question: What about the TERMINAL_BW (24 h) of the same molecule?
Answer: 221.4 g

Question: What about the APTT (24 h) of the same molecule?
Answer: 19.7 s

Question: What about the Bas (24 h) of the same molecule?
Answer: 0%

Question: What about the Eos (24 h) of the same molecule?
Answer: 1%

Question: And the Fbg (24 h)?
Answer: 309 mg/dL

Question: And the Hb (24 h)?
Answer: 13.2 g/dL

Question: And the Ht (24 h)?
Answer: 38.3%

Question: And the Lym (24 h)?
Answer: 79.4%

Question: What about the MCH (24 h) of the same molecule?
Answer: 21.2 pg

Question: And the MCHC (24 h)?
Answer: 34.5%

Question: What about the MCV (24 h) of the same molecule?
Answer: 61.5 fL

Question: And the Mono (24 h)?
Answer: 2.2%

Question: What about the Neu (24 h) of the same molecule?
Answer: 16.8%

Question: What about the PT (24 h) of the same molecule?
Answer: 15.8 s

Question: What about the Plat (24 h) of the same molecule?
Answer: 122.9 x10_4/uL

Question: And the RBC (24 h)?
Answer: 622.4 x10_4/ul

Question: What about the Ret (24 h) of the same molecule?
Answer: 8.5%

Question: And the WBC (24 h)?
Answer: 94.4 x10_2/uL

Question: What about the KIDNEY_L (24 h) of the same molecule?
Answer: 0.9 g

Question: What about the KIDNEY_R (24 h) of the same molecule?
Answer: 0.9 g

Question: What about the KIDNEY_TOTAL (24 h) of the same molecule?
Answer: 1.9 g

Question: What about the LIVER (24 h) of the same molecule?
Answer: 10.7 g

Question: And the A/G (24 h)?
Answer: 1.2

Question: And the ALP (24 h)?
Answer: 1498.2 IU/L

Question: What about the ALT (24 h) of the same molecule?
Answer: 52.4 IU/L

Question: What about the AST (24 h) of the same molecule?
Answer: 89.6 IU/L

Question: And the BUN (24 h)?
Answer: 18.4 mg/dL

Question: What about the CRE (24 h) of the same molecule?
Answer: 0.1 mg/dL

Question: And the Ca (24 h)?
Answer: 11.1 mg/dL

Question: What about the Cl (24 h) of the same molecule?
Answer: 107 meq/L

Question: What about the DBIL (24 h) of the same molecule?
Answer: 0 mg/dL

Question: And the GLC (24 h)?
Answer: 181.8 mg/dL

Question: And the IP (24 h)?
Answer: 7.5 mg/dL

Question: And the K (24 h)?
Answer: 4.4 meq/L

Question: What about the LDH (24 h) of the same molecule?
Answer: 271 IU/L

Question: What about the Na (24 h) of the same molecule?
Answer: 142 meq/L

Question: What about the PL (24 h) of the same molecule?
Answer: 163.4 mg/dL

Question: What about the RALB (24 h) of the same molecule?
Answer: 3.1 g/dL

Question: And the TBIL (24 h)?
Answer: 0.002 mg/dL

Question: What about the TC (24 h) of the same molecule?
Answer: 84.8 mg/dL

Question: What about the TG (24 h) of the same molecule?
Answer: 117 mg/dL

Question: What about the TP (24 h) of the same molecule?
Answer: 5.8 g/dL

Question: And the gamma-GTP (24 h)?
Answer: 1.2 IU/L
